The text below walks through data of US11548900B2, “Oxazino-quinazoline and oxazino-quinoline type compound, preparation method and uses thereof” (BEIJING SCITECH-MQ PHARMACEUTICALS LIMITED, priority 2018, dated 2023).

One experiment addresses HER2 kinase (Homo sapiens (Human), UniProt P04626). Kind of experiment: Inhibition of HER2 kinase activity (ULight-labeled PolyGT substrate). The experiment is classed as biochemical. The following applies: HER2 kinase 10 nM, ATP 10 μM, 2 hours. The method in brief: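 Eleven-point 3-fold dilutions (0.042 nM–2.5 μM final, 1% DMSO) tested in duplicate against 10 nM HER2 with 100 nM ULight-labelled PolyGT and 10 μM ATP. Reaction ran 2 h at RT after 5 min pre-incubation; 665/615 nm TR-FRET ratio used to derive inhibition and IC50.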

The next experiment deals with HCC827 cells. In words: Inhibition of cell proliferation, HCC827 (CCK-8, 72 h). The experiment is classed as cell-based. As to conditions: Homo sapiens, 72 h incubation. The procedure:
The assay for the inhibition of cell proliferation by small molecular compounds was carried out using the method as follows:
1. 600 μL pancreatin was added to a T75 cell culture flask, which was digested in a 37° C. incubator for about 1 min before 5 mL of DMEM complete culture solution was added, blew evenly, transferred to a 15 mL centrifuge tube, and centrifuged at 1000 rpm for 4 min;
2. The supernatant was removed and 5 mL DMEM complete culture solution was added, blew evenly, and 10 μL cell suspension was taken and mixed with 10 μL 0.4% Trypan Blue, and counted using a cell counter;
3. BT474 and HCC827 cell lines were seeded in 96-well plates at a cell density of 10,000 and 3000 cells/well/80 μL, respectively, and cultured overnight. Only sterile water was added to the 36 wells on the periphery of the 96-well plate without adding cells, and only the 60 wells in the center of the 96-well plate were used for cell assays and controls;
4. Dilution of compounds: the compounds were diluted with a 3-fold dilution to make 10 concentrations in total with an initial concentration of 10 mM;
5. 20 μL of different compounds with different concentrations were added to each well, and 20 μL of complete culture solution was added to the remaining wells. The final concentration of DMSO in each well is 0.25%;
6. After 72 h of incubation, 10 μL CCK-8 reagent was added to each well, and incubated at 37° C. for 1-2 h; and the OD value was read at 450 nm;
7. Cell survival rate (%)=[(As−Ab)/(Ac−Ab)]*100%
As: Assay well (medium containing cell, CCK-8, compound)
Ac: Control well (medium containing cell, CCK-8)
Ab: Blank well (CCK-8, medium without cell and compound)
8. The value was imported into Graphpad Prism5 software for the calculation of IC50s (compound concentration at which 50% maximum survival rate is observed).

The next experiment has as its system BT474 cells. Kind of experiment: Inhibition of cell proliferation, BT474 (CCK-8, 72 h). Type of experiment: cell-based. As to conditions: Homo sapiens, BT-474, 72 h incubation. The method in brief:
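BT474 and HCC827 seeded at 10,000 and 3000 cells/well respectively, cultured overnight, then exposed to 10-point 3-fold compound dilutions (top stock 10 mM; 0.25% DMSO final) for 72 h. Viability by CCK-8, OD450; survival normalised to untreated and cell-free blanks, IC50 from curve fit.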

The target of the next experiment is EGFR kinase (Homo sapiens (Human), UniProt P00533). In words: Inhibition of EGFR kinase activity (ULight-labeled JAK-1 (Tyr1023) peptide substrate). The experiment is classed as biochemical. The following applies: EGFR kinase 0.35 nM, ATP 150 μM, 2 hours. An outline of the steps:
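TR-FRET kinase assay: 0.35 nM EGFR, 150 μM ATP, 100 nM substrate, 2 h at room temperature in the dark after 5 min enzyme-compound preincubation, 1% DMSO. Compounds tested as 11-point 3-fold series, 2.5 μM to 0.042 nM final, duplicate; IC50 from 665/615 nm ratio-based inhibition.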

EGFR kinase, sequence (P00533 25-1210): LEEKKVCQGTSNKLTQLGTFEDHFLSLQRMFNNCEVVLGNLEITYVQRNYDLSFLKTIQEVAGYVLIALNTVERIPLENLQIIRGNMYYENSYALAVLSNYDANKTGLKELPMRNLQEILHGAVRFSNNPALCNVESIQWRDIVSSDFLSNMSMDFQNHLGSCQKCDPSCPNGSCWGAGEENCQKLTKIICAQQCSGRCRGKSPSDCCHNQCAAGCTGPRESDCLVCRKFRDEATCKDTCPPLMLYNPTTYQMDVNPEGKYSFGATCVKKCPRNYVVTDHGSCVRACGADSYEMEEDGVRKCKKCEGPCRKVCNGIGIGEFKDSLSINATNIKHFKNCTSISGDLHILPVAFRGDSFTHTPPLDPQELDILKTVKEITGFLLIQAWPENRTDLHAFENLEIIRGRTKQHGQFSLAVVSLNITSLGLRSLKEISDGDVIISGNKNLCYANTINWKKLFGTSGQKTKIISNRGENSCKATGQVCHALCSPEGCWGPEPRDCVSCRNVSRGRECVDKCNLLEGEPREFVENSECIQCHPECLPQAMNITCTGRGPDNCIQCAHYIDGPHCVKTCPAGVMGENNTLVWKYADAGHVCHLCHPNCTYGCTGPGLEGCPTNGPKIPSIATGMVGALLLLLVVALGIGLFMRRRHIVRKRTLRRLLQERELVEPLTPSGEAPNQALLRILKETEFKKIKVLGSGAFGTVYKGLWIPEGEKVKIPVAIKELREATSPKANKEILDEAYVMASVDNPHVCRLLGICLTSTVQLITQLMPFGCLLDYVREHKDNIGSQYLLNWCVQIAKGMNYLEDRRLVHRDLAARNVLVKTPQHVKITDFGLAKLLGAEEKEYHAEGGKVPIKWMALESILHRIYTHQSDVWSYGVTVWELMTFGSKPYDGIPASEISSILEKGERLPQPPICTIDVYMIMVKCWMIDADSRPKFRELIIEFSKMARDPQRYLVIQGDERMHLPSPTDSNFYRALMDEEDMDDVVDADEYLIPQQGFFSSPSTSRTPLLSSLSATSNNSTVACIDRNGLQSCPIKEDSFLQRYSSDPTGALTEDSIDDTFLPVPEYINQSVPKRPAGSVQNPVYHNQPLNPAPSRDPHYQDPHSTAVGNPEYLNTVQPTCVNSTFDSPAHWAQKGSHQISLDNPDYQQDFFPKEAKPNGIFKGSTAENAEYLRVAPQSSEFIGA
HER2 kinase, sequence (P04626 23-1255): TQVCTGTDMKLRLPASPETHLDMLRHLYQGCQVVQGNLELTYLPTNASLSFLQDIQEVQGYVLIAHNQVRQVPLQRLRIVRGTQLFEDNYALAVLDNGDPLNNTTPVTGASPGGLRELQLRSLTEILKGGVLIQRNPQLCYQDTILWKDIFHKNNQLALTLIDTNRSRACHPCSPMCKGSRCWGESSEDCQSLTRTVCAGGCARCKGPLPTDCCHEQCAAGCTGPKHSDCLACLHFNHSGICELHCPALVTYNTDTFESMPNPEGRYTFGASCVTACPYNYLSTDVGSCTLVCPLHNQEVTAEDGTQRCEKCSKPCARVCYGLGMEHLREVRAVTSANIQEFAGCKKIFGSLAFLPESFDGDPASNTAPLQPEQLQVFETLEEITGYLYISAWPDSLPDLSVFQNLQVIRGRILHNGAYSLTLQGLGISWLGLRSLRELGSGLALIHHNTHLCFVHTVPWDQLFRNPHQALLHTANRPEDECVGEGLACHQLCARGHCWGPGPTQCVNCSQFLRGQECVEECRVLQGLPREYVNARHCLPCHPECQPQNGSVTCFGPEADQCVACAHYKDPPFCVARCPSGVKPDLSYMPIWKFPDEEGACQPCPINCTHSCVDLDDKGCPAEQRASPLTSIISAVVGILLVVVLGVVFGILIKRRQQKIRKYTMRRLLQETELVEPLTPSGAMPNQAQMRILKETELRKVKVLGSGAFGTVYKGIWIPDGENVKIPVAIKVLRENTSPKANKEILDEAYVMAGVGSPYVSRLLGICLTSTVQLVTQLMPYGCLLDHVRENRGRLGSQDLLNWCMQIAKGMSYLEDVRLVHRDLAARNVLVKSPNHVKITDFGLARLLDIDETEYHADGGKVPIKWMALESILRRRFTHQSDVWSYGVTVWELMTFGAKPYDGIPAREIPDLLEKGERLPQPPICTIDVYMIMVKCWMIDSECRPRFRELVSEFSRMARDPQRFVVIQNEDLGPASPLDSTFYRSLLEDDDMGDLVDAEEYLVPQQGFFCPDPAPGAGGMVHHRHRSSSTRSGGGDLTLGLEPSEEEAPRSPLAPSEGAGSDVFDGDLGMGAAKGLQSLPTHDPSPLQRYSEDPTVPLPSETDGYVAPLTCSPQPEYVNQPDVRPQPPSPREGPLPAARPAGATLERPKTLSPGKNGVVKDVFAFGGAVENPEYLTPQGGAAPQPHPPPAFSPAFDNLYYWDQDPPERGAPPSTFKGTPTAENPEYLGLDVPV

As to `CN(C)C/C=C/C(=O)N1CCOc2c1ccc1ncnc(Nc3ccc(Oc4ccccc4)cc3)c21` [Example 44, (E)-4-(dimethylamino)-1-(10-((4-phenoxyphenyl)amino)-2,3-dihydro-4H-[1,4]oxazino[2,3-f]quinazolin-4-yl)but-2-en-1-one], the IC50 – broadly, the midpoint of a concentration-inhibition curve – is at most 50 nM against HER2 kinase, 500 to 5000 nM with HCC827 cells, at most 50 nM in the experiment with BT474 cells and at most 50 nM on EGFR kinase.

On to `CN(C)C/C=C/C(=O)N1CCOc2c1ccc1ncnc(Nc3ccc(OCc4ccccn4)c(Cl)c3)c21` [Example 46, (E)-1-(10-((3-chloro-4-(pyridin-2-ylmethoxy)phenyl)amino)-2,3-dihydro-4H-[1,4]oxazino[2,3-f]quinazolin-4-yl)-4-(dimethylamino)but-2-en-1-one], for which the IC50 on HER2 kinase was at most 50 nM; with HCC827 cells, 50 to 500 nM; in the experiment on BT474 cells, at most 50 nM; at EGFR kinase it was at most 50 nM.

`Cc1cccc(Oc2ccc(Nc3ncnc4ccc5c(c34)OCCN5C(=O)/C=C/CN(C)C)cc2)c1` [Example 47, (E)-4-(dimethylamino)-1-(10-((4-(m-tolyloxy)phenyl)amino)-2,3-dihydro-4H-[1,4]oxazino[2,3-f]quinazolin-4-yl)but-2-en-1-one]: the IC50 against HER2 kinase is at most 50 nM; in the experiment on HCC827 cells it was 500 to 5000 nM; in the experiment with BT474 cells it was at most 50 nM; against EGFR kinase, at most 50 nM.

As for `CN(C)C/C=C/C(=O)N1CCOc2c1ccc1ncnc(Nc3ccc(Oc4cccc(Cl)c4)cc3)c21` [Example 48, (E)-4-(dimethylamino)-1-(10-((4-(3-chlorophenoxy)phenyl)amino)-2,3-dihydro-4H-[1,4]oxazino[2,3-f]quinazolin-4-yl)but-2-en-1-one], the IC50 at HER2 kinase is at most 50 nM; in the experiment with HCC827 cells it was 500 to 5000 nM; with BT474 cells, 50 to 500 nM; at EGFR kinase it was at most 50 nM.

Consider `CN(C)C/C=C/C(=O)N1CCOc2c1ccc1ncnc(Nc3ccc(Oc4cccc(F)c4)cc3)c21` [Example 49, (E)-4-(dimethylamino)-1-(10-((4-(3-fluorophenoxy)phenyl)amino)-2,3-dihydro-4H-[1,4]oxazino[2,3-f]quinazolin-4-yl)but-2-en-1-one], for which the IC50 on HER2 kinase was at most 50 nM; in the experiment with HCC827 cells, 50 to 500 nM; in the experiment on BT474 cells, at most 50 nM; at EGFR kinase, at most 50 nM.

For `CN(C)C/C=C/C(=O)N1CCOc2c1ccc1ncnc(Nc3ccc(Oc4ccccc4F)cc3)c21` [Example 50, (E)-4-(dimethylamino)-1-(10-((4-(2-fluorophenoxy)phenyl)amino)-2,3-dihydro-4H-[1,4]oxazino[2,3-f]quinazolin-4-yl)but-2-en-1-one], the IC50 on HER2 kinase was at most 50 nM; in the experiment with HCC827 cells, 500 to 5000 nM; in the experiment on BT474 cells, at most 50 nM; on EGFR kinase it was at most 50 nM.

In the case of `CN(C)C/C=C/C(=O)N1CCOc2c1ccc1ncnc(Nc3ccc(Oc4ccc(F)cc4)cc3)c21` [Example 51, (E)-4-(dimethylamino)-1-(10-((4-(4-fluorophenoxy)phenyl)amino)-2,3-dihydro-4H-[1,4]oxazino[2,3-f]quinazolin-4-yl)but-2-en-1-one], the IC50 on HER2 kinase was at most 50 nM; in the experiment with HCC827 cells, 500 to 5000 nM; with BT474 cells it was at most 50 nM; at EGFR kinase, at most 50 nM.

Consider `COc1ccccc1Oc1ccc(Nc2ncnc3ccc4c(c23)OCCN4C(=O)/C=C/CN(C)C)cc1` [Example 53, (E)-4-(dimethylamino)-1-(10-((4-(2-methoxyphenoxy)phenyl)amino)-2,3-dihydro-4H-[1,4]oxazino[2,3-f]quinazolin-4-yl)but-2-en-1-one], for which the IC50 against HER2 kinase was at most 50 nM; with HCC827 cells, 500 to 5000 nM; with BT474 cells, at most 50 nM; on EGFR kinase, at most 50 nM.

Regarding `CN(C)C/C=C/C(=O)N1CCOc2c1ccc1ncnc(Nc3ccc(Oc4cccnc4)cc3)c21` [Example 54], the IC50 against HER2 kinase was at most 50 nM; in the experiment on HCC827 cells it was 500 to 5000 nM; in the experiment on BT474 cells, at most 50 nM; against EGFR kinase it was 500 to 5000 nM.

In the case of `COc1cccc(Oc2ccc(Nc3ncnc4ccc5c(c34)OCCN5C(=O)/C=C/CN(C)C)cc2)c1` [Example 56, (E)-4-(dimethylamino)-1-(10-((4-(3-methoxyphenoxy)phenyl)amino)-2,3-dihydro-4H-[1,4]oxazino[2,3-f]quinazolin-4-yl)but-2-en-1-one], the IC50 is at most 50 nM against HER2 kinase, 500 to 5000 nM with HCC827 cells, at most 50 nM with BT474 cells and at most 50 nM at EGFR kinase.

Consider `CN(C)C/C=C/C(=O)N1CCOc2c1ccc1ncnc(Nc3ccc(Oc4nccs4)cc3)c21` [Example 57, (E)-4-(dimethylamino)-1-(10-((4-(thiazol-2-yloxy)phenyl)amino)-2,3-dihydro-4H-[1,4]oxazino[2,3-f]quinazolin-4-yl)but-2-en-1-one], for which the half-inhibitory concentration (IC50) at HER2 kinase was at most 50 nM; in the experiment with HCC827 cells, 500 to 5000 nM; in the experiment on BT474 cells it was at most 50 nM; on EGFR kinase, 50 to 500 nM.

Regarding `O=C(/C=C/CNC1CCC1)N1CCOc2c1ccc1ncnc(Nc3ccc(OCc4ccccn4)c(Cl)c3)c21` [Example 109, (E)-1-(10-((3-chloro-4-(pyridin-2-ylmethoxy)phenyl)amino)-2,3-dihydro-4H-[1,4]oxazino[2,3-f]quinazolin-4-yl)-4-(cyclobutylamino)but-2-en-1-one], the IC50 against HER2 kinase is at most 50 nM; with HCC827 cells, 50 to 500 nM; in the experiment on BT474 cells, at most 50 nM.

Regarding `CN1CCC[C@H]1/C=C/C(=O)N1CCOc2c1ccc1ncnc(Nc3ccc(OCc4ccccn4)c(Cl)c3)c21` [Example 112, (S,E)-1-(10-((3-chloro-4-(pyridin-2-ylmethoxy)phenyl)amino)-2,3-dihydro-4H-[1,4]oxazino[2,3-f]quinazolin-4-yl)-3-(1-methylpyrrolidin-2-yl)prop-2-en-1-one], the IC50 is at most 50 nM against HER2 kinase, 50 to 500 nM in the experiment on HCC827 cells and at most 50 nM in the experiment with BT474 cells.

Regarding `CC#CC(=O)N1CCOc2c1ccc1ncnc(Nc3ccc(OCc4ccccn4)c(Cl)c3)c21` [Example 113, 1-(10-((3-chloro-4-(pyridin-2-ylmethoxy)phenyl)amino)-2,3-dihydro-4H-[1,4]oxazino[2,3-f]quinazolin-4-yl)but-2-yne-1-one], the IC50 against HER2 kinase was at most 50 nM; in the experiment with HCC827 cells, 500 to 5000 nM; in the experiment on BT474 cells, 50 to 500 nM.

As for `CC1(O)CCN(C/C=C/C(=O)N2CCOc3c2ccc2ncnc(Nc4ccc(OCc5ccccn5)c(Cl)c4)c32)CC1` [Example 116, (E)-1-(10-((3-chloro-4-(pyridin-2-ylmethoxy)phenyl)amino)-2,3-dihydro-4H-[1,4]oxazino[2,3-f]quinazolin-4-yl)-4-(4-hydroxyl-4-methylpiperidin-1-yl)but-2-en-1-one], the IC50 was at most 50 nM on HER2 kinase, 50 to 500 nM in the experiment on HCC827 cells and at most 50 nM with BT474 cells.

For `COCCN(C)C/C=C/C(=O)N1CCOc2c1ccc1ncnc(Nc3ccc(OCc4ccccn4)c(Cl)c3)c21` [Example 119, (E)-1-(10-((3-chloro-4-(pyridin-2-ylmethoxy)phenyl)amino)-2,3-dihydro-4H-[1,4]oxazino[2,3-f]quinazolin-4-yl)-4-((2-methoxyethyl)(methyl)amino)but-2-en-1-one], the results for the IC50 against HER2 kinase, in the experiment with HCC827 cells and with BT474 cells were at most 50 nM, 50 to 500 nM and at most 50 nM, respectively.
